The text below walks through data of patent publication US20150140043A1, “IMMUNOMODULATORY METHODS USING NOTCH AGONISTS” (INSTITUT NATIONAL DE LA SANTE DE LA RECHERCHE MEDICAL …, priority 2012, published 2015).

Holding throughout (assay type): cell-based, human
In assay [1] the test system is CD4+CD25- T cell proliferation. The experiment in a line: Sensitization of CD4+CD25- T cells to low-dose TGF-β (anti-CD3 plus NOTCH ligands, no Treg). The note with it: anti-CD3 plus ligand (5 μg/ml), TGF-β 0.1 ng/ml, 5 days. As to the method: FIG. 2: NOTCH suppresses the proliferation of CD4^+CD25^− T cells through TGF-β • A) CD4^+CD25^−T cells were cultured for 5 days in coated wells with anti-CD3 and NOTCH ligands (5 μg/ml) or IgG control (5 μg/ml) in the presence of Treg at ratio 1:16. Anti-TGF-β or IgG control mAbs (2.5 μg/ml) were added at the beginning of the co-culture. The data represent the mean±SEM. * indicates P<0.05. • B) CD4^+CD25^−T cells were cultured for 5 days in coated wells with anti-CD3 and NOTCH ligands (5 μg/ml) or IgG control (5 μg/ml). Low dose of TGF-β (0.1 ng/ml) was added. The data represent the mean±SEM.
Peripheral blood mononuclear cells were separated by Ficoll-Hypaque centrifugation (Amersham Biosciences) from buffy coats obtained from healthy blood donors (EFS, Créteil). CD4^+ CD25^− T cells and CD4^+CD25^high T cells were isolated using a CD4^+ T cell enrichment column and a human CD4^+CD25^+ Treg isolation kit purchased from Miltenyi Biotec. CD4^+CD25^− cells and CD4^+CD25^+ cells were enriched to greater than 95% purity. Cells were plated in media at a concentration of 1.25×10^5 to 5×10^5 cells per ml in a 96-well round-bottom plates coated with 1 μg/ml of anti-CD3 (UCHT1) and 5 μg/ml of NOTCH Ligand (DL-1-Fc, DL-4-Fc and Jagged-1-Fc are a generous Gift from Dr. Sakano). […]

The test system of assay [2] is TGF-βRII protein expression. Put plainly: Surface staining / flow cytometry of TGF-βRII protein on CD4+CD25- T cells. The note with it: CD4+CD25- T cells incubated 48 hours with ligand. As to the method:
FIG. 3: TGF-βRII expression on effector T cells after NOTCH ligands exposure • A) CD4^+CD25^−T cells were purified using Miltenyi microbeads from PBMC and cultured for 3 hours in coated wells with anti-CD3 (200 ng/ml) and NOTCH ligands (5 μg/ml) or IgG control (5 μg/ml). Quantitative real-time PCR was performed to measure the transcripts levels of TGF-βRII. Data shown are mean±SEM and are representative of 4 independent experiments. * indicates P<0.05. • B) Protein levels of TGF-βRII in CD4^+CD25^−T cells stimulated to DL-1, DL-4 and Jagged-1 using FACS analysis. Mean of fluorescence are represented±SEM. * indicates P<0.05.
For surface staining, the cells were harvested, washed twice and resuspended in 1% FCS buffer. The cells were stained with mAbs for CD4 (Beckman Coulter), TGF-βRII (R&D) as per manufacturer's instructions for 20 min at 4° C. Cells were then analyzed by flow cytometry using FACScalibur™ and CellQuest™ software (Becton Dickinson, San Jose, Calif., USA).
TGF-βRII protein expression was assessed by flow cytometry. In these experiments, effector CD4^+CD25^− T cells were isolated and incubated for 48 hours in the presence of NOTCH ligands or IgG control.
For orientation: A flow cytometer gives signals particle by particle.

The test system of the next assay is pSmad3. Put plainly: Immunoblot for pSmad3 in CD4+CD25- T cells. The note with it: 48 hours on coated ligand in the presence of TGF-β (5 ng/ml). As to the method: FIG. 4: TGF-βRII function on effector T cells stimulated to NOTCH ligands • A) Western blot analysis was performed on CD4^+CD25^−T cells cultured for 48 hours in coated wells with anti-CD3 (200 ng/ml) and NOTCH ligands (5 μg/ml) in presence of TGF-β (5 ng/ml). The whole cell lysate was analysed by immunoblot for pSmad3 and b-actin was used as loading control. The experiment was repeated twice with similar results. […] Cells were analyzed 48 hours later and data normalized for β-galactosidase activity. Histograms show the luciferase activity in a representative experiment performed in PC12 with TβRII promoter-luciferase construct. The experiment was repeated 3 times with similar results.
CD4^+CD25^− T cells were stimulated with NOTCH Ligand during 2 days. 1 ng/ml of TGF-β was also added during 30 min to induce Smad3 phosphorylation. Cells were collected, washed and lysed with Tris HCL (20 mM) 0.5% SDS buffer in presence of DNase (benzonase), inhibitors of phosphatase and protease. 10 μg proteins were deposed for Western blot Analysis with following Antibodies: Anti-PhosphoSmad3, Smad3, Actine.
Given the above observations showing an upregulation of TGF-βRII following NOTCH activation, the inventors hypothesized that Jagged-1 and DL-4 led to an activation of TGF-β signalling in effector T cells. […]
A general note: In western blotting, separated proteins are transferred to a membrane and probed.

“Jagged-1: recombinant NOTCH ligand Jagged-1, used coated as Jagged-1-Fc (SEQ ID NO: 5)”: the “Percentage of inhibition of proliferation in the presence of TGF-β” value in assay [1] was 87.8%. Also, in assay [2], the “TGF-βRII protein expression (MFI)” value was 130. Further, the “pSmad3 signal (immunoblot)” value with pSmad3 is on record as “strong pSmad3 signal”.

B1: DL-1: recombinant NOTCH ligand Delta-like 1, used coated as DL-1-Fc (SEQ ID NO: 8) (protein, listed as Homo sapiens)
chain: MGSRCALALAVLSALLCQVWSSGVFELKLQEFVNKKGLLGNRNCCRGGAGPPPCACRTFFRVCLKHYQASVSPEPPCTYGSAVTPVLGVDSFSLPDGGGADSAFSNPIRFPFGFTWPGTFSLIIEALHTDSPDDLATENPERLISRLATQRHLTVGEEWSQDLHSSGRTDLKYSYRFVCDEHYYGEGCSVFCRPRDDAFGHFTCGERGEKVCNPGWKGPYCTEPICLPGCDEQHGFCDKPGECKCRVGWQGRYCDECIRYPGCLHGTCQQPWQCNCQEGWGGLFCNQDLNYCTHHKPCKNGATCTNTGQGSYTCSCRPGYTGATCELGIDECDPSPCKNGGSCTDLENSYSCTCPPGFYGKICELSAMTCADGPCFNGGRCSDSPDGGYSCRCPVGYSGFNCEKKIDYCSSSPCSNGAKCVDLGDAYLCRCQAGFSGRHCDDNVDDCASSPCANGGTCRDGVNDFSCTCPPGYTGRNCSAPVSRCEHAPCHNGATCHERGHRYVCECARGYGGPNCQFLLPELPPGPAVVDLTEKLEGQGGPFPWVAVCAGVILVLMLLLGCAAVVVCVRLRLQKHRPPADPCRGETETMNNLANCQREKDISVSIIGATQIKNTNKKADFHGDHSADKNGFKARYPAVDYNLVQDLKGDDTAVRDAHSKRDTKCQPQGSSGEEKGTPTTLRGGEASERKRPDSGCSTSKDTKYQSVYVISEEKDECVIATEV
Regarding B1, the “Percentage of inhibition of proliferation in the presence of TGF-β” value in assay [1] is given as 42.9%. In addition, in assay [2], the “TGF-βRII protein expression (MFI)” value is 85. Besides, in the assay on pSmad3, the “pSmad3 signal (immunoblot)” value was “weak pSmad3 signal”.
